Test results published in US20220411422A1, “ERBB RECEPTOR INHIBITORS” (Dizal (Jiangsu) Pharmaceutical Co., Ltd., priority 2018, published 2022).
pIC50: −log10 of the molar value.

Assays:
[1] = Blood brain barrier penetration assay in rats (short oral absorption model with blood, plasma and brain binding); type: in vivo; settings: male, Han Wistar, CSF, Table 5, rat, read-out: Kp,uu,CSF
Experimental: In vitro blood, plasma and brain binding assay was carried out with equilibrium dialysis device. […] At the end of incubation, a 50 μL aliquot from the receiver side and a 5 μL from the donor chamber were taken. The 5 μL sample was further diluted with 45 μL of blank blood, plasma or brain homogenate. Paired samples were matrix-matched with either buffer or blank matrix, and mixed for 2 min, and then precipitated with 150 μL cold acetonitrile with 100 ng/mL tolbutamide as internal standard. After centrifuging at 4000 rpm for 20 min, supernatant was diluted with 0.1% formic acid aqueous solution and analyzed for LC/MS/MS (API 4000, Applied Biosystems, Foster City). […] D is dilution factor. […] A Short oral absorption (SOA) model is an in-vivo screening model to identify brain penetration of a compound. Six male Han Wistar rats purchased from Beijing Vital River were orally dosed with the compound. […] Brain tissue was harvested and homogenized in 3× volume of 100 mM phosphate buffered saline (pH7.4). All samples were stored at ˜−70° C. prior to LC/MS/MS analysis. Standards were prepared by spiking blank plasma, blood, brain homogenate and artificial CSF. […] After 2 min vortex and 5 min centrifugation at 14,000 rpm, supernatant was analyzed by LC/MS/MS (API 4000, Applied Biosystems, Foster City). Two sets of standard curves were run at the beginning and end of each batch from blood sample analysis. For brain and CSF samples, one standard curve was analyzed along with test samples. Total brain levels, expressed as brain/blood ratio (Kp,brain) were measured by AUC(brain)/AUC(blood or plasma) in rodents after oral administration. Similarly, CSF levels represented by a ratio of CSF/blood exposure (Kp,CSF) were determined by AUC(CSF)/AUC(blood or plasma). Free fraction of test compound in biological matrix was determined by in vitro blood and brain binding assay. Kp,uu brain and Kp,uu CSF was calculated by the following equation: Kp,uu brain=AUC(brain)/AUC(blood or plasma)×(fubrain/fublood/plasma) and […] Moreover, the ability of Compounds 6 and 16 to cross BBB was assessed in both rat and monkey by measuring unbound brain-to-plasma partition ratio (Kpuu,brain) and unbound CSF-to-plasma partition ratio (Kpuu,CSF) with the method mentioned above.

wild type EGFR = molecular target: T1, wild type EGFR (Homo sapiens, UniProt P00533); test: pEGFR cellular activity in A431 cell line; type: cell-based
T1 construct: which expresses wild type EGFR protein; endogenous in cells; host or cells: A431
Experimental: A compound's activity of inhibition for EGFR WT can be evaluated with NCI-H838 (ATCC® CRL-5844™) and A431 cell line (the epidermoid carcinoma cell line A-431), which expresses wild type EGFR protein as the count screening to define the selectivity of the compound.
The compounds' inhibition of target modulation were determined as follows: NCI-H838 cells and A431 cells were sorted in 96 well plates (20000 cells/well) with the DMEM medium containing 1% FBS overnight and then treated with tested compounds at a series of concentrations (3 μM, 0.3 μM, 0.1 μM, 0.03 μM, 0.01 μM, 0.003 μM, 0.001 μM, 0.0001 μM). The plates were incubated for 4 h at 37° C. with 5% CO2 followed by the stimulation of recombinant hEGF (100 ng/ml for 10 Min, RD, Cat #236-EG) and then the EGFR (Y1068) phosphorylation level of cells in each well were measured with MSD Kit (MULTI-SPOT®96 4-Spot HB Prototype EGFR Triplex […]: pEGFR (Tyr1068), pEGFR (Tyr1173), Total EGFR (Cat #N45ZB-1). The assay is a electrochemiluminescent method (MESO SCALE DISCOVERY) for determining both phosphorylated and total EGFR of cells with an MSD SECTOR® Imager and then the ratio of p-EGFR/total EGFR can be generated by the machine. The percentage of inhibition was used the formula: % inhibition=100×[1−(ratio of sample well−ratio of Min ctrl well)/(ratio of Max−Ratio of Min ctrl well)]. […]

[2] = Clinical plasma and CSF PK in HER2+ MBC patients; type: in vivo, human
Experimental: The plasma concentration of Compound 6 at the dosage of 50 to 200 mg following single dose or multiple doses were tested. […] In patients with BM, averaged Kpuu,CSF was around 1.82 and 0.78 for Compound 6 and its active metabolite Compound 16, respectively.

T1 sequence (P00533 25-1210): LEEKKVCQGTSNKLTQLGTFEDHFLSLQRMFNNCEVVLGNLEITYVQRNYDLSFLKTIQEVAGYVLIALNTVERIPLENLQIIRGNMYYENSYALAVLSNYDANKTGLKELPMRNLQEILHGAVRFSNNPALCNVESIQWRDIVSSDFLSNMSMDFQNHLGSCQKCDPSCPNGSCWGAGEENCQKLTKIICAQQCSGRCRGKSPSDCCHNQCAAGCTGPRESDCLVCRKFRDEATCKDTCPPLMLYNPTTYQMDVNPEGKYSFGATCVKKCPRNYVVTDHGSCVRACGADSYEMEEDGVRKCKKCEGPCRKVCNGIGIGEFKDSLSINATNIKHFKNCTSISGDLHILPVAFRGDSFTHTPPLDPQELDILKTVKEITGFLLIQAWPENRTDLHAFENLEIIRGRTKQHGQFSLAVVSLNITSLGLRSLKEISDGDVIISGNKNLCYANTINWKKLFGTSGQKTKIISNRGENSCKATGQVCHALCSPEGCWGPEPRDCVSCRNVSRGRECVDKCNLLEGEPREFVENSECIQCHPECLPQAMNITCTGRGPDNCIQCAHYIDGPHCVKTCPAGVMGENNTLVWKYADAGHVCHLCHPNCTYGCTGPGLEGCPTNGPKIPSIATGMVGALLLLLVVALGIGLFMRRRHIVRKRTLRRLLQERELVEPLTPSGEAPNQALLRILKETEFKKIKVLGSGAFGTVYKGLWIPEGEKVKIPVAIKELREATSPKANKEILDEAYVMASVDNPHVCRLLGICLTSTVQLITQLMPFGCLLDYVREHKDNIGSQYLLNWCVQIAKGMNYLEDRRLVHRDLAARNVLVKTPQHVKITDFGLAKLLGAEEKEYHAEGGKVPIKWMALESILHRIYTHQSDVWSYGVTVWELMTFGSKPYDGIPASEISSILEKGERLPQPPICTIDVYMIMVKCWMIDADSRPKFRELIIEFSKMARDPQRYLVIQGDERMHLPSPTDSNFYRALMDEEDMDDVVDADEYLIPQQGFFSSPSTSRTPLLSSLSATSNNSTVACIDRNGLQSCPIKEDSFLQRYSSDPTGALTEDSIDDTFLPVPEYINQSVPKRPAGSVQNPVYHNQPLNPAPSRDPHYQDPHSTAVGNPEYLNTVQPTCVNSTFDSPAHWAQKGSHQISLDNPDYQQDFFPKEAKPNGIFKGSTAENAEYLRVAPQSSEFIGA

Compound COc1cc(O[C@H]2CCN(C)CC2(F)F)c2c(Nc3ccc(Oc4ccn5ncnc5c4)c(C)c3)ncnc2c1 (single isomer, unassigned) [Compound 6] has a Kp uu [1] of 0.87, a pIC50 (wild type EGFR) of 5.84 and a Kp uu ([2]; human, CSF, oral, patients with BM, read-out: averaged Kpuu,CSF) of about 1.82. For the same compound, the half-life ([2]; human, plasma, patients, single oral dose, read-out: terminal half-life (converted)) was about 18 h, the accumulation ([2]; patients, 15-day repeat dosing) was “Around 2 fold” and the “drug exposure versus dose” value ([2]; patients, 50 to 200 mg) was “increased in a dose proportional manner”. The “free trough concentration versus pHER2 IC50 of BT474cl cells” value ([2]; patients, doses ≥100 mg bid) was “above pHER2 IC50 of BT474cl cells”.
